The source of these data is ChEMBL document CHEMBL4270663, “6-Benzhydryl-4-amino-quinolin-2-ones as Potent Cannabinoid Type 1 (CB1) Receptor Inverse Agonists and Chemical Modifications for Peripheral Selectivity” (J Med Chem, 2018).

Data set [1] concerns Mus musculus. As to the kind of experiment: Antiobesity activity in diet induced obese C57BL/6J mouse model assessed as decrease in body weight at 3 to 10 mg/kg, po administered as daily dose measured every day for 5 days and continuing every other day till day 17. It is filed as functional, organism-based.
A short description of data set [2]: Drug uptake in plasma of diet-induced obese C57BL/6J mouse model at 1 mg/kg, po administered as daily dose measured at 2 hrs post last dose on day 1. In kind it is ADME, organism-based.
A short description of data set [3]: Drug uptake in brain of diet-induced obese C57BL/6J mouse model at 30 mg/kg administered as daily dose measured at 2 hrs post last dose on day 5. To be noted: in vivo. In kind it is ADME, organism-based.
A further data set has as its target Cytochrome P450 3A4 (Homo sapiens, UniProt P08684). The data set can be described thus: Inhibition of CYP3A4 in human liver microsomes using midazolam/testosterone as substrate after 10 to 30 mins by LC/MS analysis. It is filed as ADME.
A short description of data set [4]: Ratio of drug level in brain to plasma of diet-induced obese C57BL/6J mouse model at 1 mg/kg, po administered as daily dose measured at 2 hrs post last dose on day 23. The settings on record: read-out: BPR. It is filed as ADME, organism-based.
A short description of data set [5]: Ratio of drug level in C57BL/6J mouse brain to plasma at 20 mg/kg, po measured after 4 hrs. It is filed as ADME, organism-based. To be noted: read-out: BPR.
In data set [6] the test system is Mus musculus. The data set can be described thus: Antiobesity activity in diet induced obese C57BL/6J mouse model assessed as decrease in food intake at 3 to 10 mg/kg, po administered as daily dose measured every day for 5 days and continuing every other day till day 17. In kind it is functional, organism-based.
A short description of data set [7]: Drug uptake in brain of diet-induced obese C57BL/6J mouse model at 10 mg/kg, po administered as daily dose measured at 2 hrs post last dose on day 23. It is filed as ADME, organism-based. The settings on record: in vivo.
For a further data set, the target named is Cannabinoid receptor 1 (Homo sapiens, UniProt P21554). The data set can be described thus: Inverse agonist activity at human CB1 receptor expressed in HEK293 cells assessed as inhibition of forskolin-induced cAMP accumulation after 30 mins by HTRF assay. In kind it is functional, cell-based.
Cannabinoid receptor 1, sequence (P21554 whole entry): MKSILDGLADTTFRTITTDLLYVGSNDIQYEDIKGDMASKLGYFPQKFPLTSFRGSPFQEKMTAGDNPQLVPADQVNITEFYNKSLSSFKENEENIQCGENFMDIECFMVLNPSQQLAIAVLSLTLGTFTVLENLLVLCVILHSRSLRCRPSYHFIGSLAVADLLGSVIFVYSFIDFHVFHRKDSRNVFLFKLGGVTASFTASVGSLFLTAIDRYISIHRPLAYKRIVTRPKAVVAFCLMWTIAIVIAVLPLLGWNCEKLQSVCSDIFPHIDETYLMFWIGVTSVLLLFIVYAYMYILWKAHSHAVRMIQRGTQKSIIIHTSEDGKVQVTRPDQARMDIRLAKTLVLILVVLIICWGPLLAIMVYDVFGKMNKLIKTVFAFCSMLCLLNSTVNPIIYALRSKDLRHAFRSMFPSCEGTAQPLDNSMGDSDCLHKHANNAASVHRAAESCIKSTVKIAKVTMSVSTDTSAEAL
The test system of data set [8] is Mus musculus. As to the kind of experiment: Antiobesity activity in diet induced obese C57BL/6J mouse model assessed as decrease in body weight at 30 mg/kg administered as daily dose measured every day for 5 days. In kind it is functional, organism-based.
The nature of data set [9]: Ratio of drug level in brain to plasma of MDR1a knockout CF-1 mouse at 20 mg/kg, po. It is filed as ADME, organism-based. The settings on record: read-out: BPR.
The test system of data set [10] is Mus musculus. The data set can be described thus: Antiobesity activity in diet induced obese C57BL/6J mouse model assessed as decrease in food intake at 3 mg/kg, po administered as daily dose measured every day for 5 days and continuing every other day till day 8 and 15. It is filed as functional, organism-based.
Data set [11] in a line: Metabolic stability in human liver microsomes assessed as parent compound remaining at 1 uM after 10 mins in presence of NADPH. In kind it is ADME, microsome. To be noted: read-out: Stability.
Data set [12] concerns Mus musculus. As to the kind of experiment: In vivo receptor occupancy at CB1 receptor in brain of diet induced obese C57BL/6J mouse model at 30 mg/kg, po administered as daily dose for 5 days measured 10 mins post last dose in presence of [3H]-CP-55940 relative to control. It is filed as functional.
Data set [13] in a line: Ratio of drug level in brain to plasma of diet-induced obese C57BL/6J mouse model at 10 mg/kg, po administered as daily dose measured at 2 hrs post last dose on day 1. It is filed as ADME, organism-based. To be noted: read-out: BPR.
The nature of data set [14]: Drug uptake in C57BL/6J mouse brain at 20 mg/kg, po measured after 1 hr. It is filed as ADME, organism-based. The settings on record: in vivo.
The nature of data set [15]: Drug uptake in plasma of diet-induced obese C57BL/6J mouse model at 10 mg/kg, po administered as daily dose measured at 2 hrs post last dose on day 22. In kind it is ADME, organism-based.
Data set [16] in a line: Half life in C57BL/6J mouse at 20 mg/kg, po administered via gavage by LC-MS/MS analysis. In kind it is ADME, organism-based. To be noted: in vivo.
The subject of the next data set is Salmonella typhimurium. The data set can be described thus: Mutagenicity in Salmonella typhimurium by Ames test. The settings on record: salmonella enterica subsp. enterica serovar typhimurium. It is filed as toxicity, organism-based.
The test system of data set [17] is Mus musculus. The data set can be described thus: Antiobesity activity in diet induced obese C57BL/6J mouse model assessed as decrease in total cholesterol level at 3 to 10 mg/kg, po administered as daily dose measured at day 26 post last dose. It is filed as functional, organism-based.
A further data set deals with T1, Cytochrome P450 1A2 (Homo sapiens, UniProt P05177).
T1 sequence (P05177 whole entry): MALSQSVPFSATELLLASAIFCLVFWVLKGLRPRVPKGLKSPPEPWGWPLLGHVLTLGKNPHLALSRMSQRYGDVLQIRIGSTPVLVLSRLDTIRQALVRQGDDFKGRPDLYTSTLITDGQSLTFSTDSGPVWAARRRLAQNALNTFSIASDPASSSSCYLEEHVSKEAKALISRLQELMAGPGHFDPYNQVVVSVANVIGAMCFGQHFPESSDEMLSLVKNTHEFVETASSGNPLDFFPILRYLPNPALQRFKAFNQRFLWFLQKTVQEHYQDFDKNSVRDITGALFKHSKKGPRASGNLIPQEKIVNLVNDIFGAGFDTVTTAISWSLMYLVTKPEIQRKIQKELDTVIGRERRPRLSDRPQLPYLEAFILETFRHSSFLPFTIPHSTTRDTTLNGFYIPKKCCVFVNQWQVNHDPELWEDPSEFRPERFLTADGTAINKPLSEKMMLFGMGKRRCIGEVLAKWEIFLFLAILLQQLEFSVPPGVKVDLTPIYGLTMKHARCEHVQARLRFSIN
The data set can be described thus: Inhibition of CYP1A2 in human liver microsomes using phenacetin as substrate after 10 to 30 mins by LC/MS analysis. In kind it is ADME.

In a further data set the target is Cytochrome P450 2C9 (Homo sapiens, UniProt P11712). The data set can be described thus: Inhibition of CYP2C9 in human liver microsomes using tolbutamide as substrate after 10 to 30 mins by LC/MS analysis. It is filed as ADME.
Cytochrome P450 2C9, sequence (P11712 whole entry): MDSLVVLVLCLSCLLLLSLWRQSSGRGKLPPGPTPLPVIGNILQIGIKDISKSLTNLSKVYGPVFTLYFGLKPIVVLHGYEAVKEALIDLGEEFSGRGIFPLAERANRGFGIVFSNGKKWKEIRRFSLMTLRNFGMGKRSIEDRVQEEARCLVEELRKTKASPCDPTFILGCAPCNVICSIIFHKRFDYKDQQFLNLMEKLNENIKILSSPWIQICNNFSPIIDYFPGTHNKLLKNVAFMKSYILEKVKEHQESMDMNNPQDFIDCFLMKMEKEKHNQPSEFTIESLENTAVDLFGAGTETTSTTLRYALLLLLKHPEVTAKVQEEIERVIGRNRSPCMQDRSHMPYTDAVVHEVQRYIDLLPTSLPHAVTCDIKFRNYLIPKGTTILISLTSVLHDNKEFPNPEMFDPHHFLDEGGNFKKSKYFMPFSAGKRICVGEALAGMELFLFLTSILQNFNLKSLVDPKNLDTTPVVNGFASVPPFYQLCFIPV
Data set [18] can be described thus: Ratio of drug level in brain to plasma of diet-induced obese C57BL/6J mouse model at 10 mg/kg, po administered as daily dose measured at 2 hrs post last dose on day 23. It is filed as ADME, organism-based. The settings on record: read-out: BPR.

Active and inactive are the calls of the source. No cut-off for these calls is given here. Bounds are passed on as bounds.

Cytochrome P450 3A4, sequence (P08684 whole entry): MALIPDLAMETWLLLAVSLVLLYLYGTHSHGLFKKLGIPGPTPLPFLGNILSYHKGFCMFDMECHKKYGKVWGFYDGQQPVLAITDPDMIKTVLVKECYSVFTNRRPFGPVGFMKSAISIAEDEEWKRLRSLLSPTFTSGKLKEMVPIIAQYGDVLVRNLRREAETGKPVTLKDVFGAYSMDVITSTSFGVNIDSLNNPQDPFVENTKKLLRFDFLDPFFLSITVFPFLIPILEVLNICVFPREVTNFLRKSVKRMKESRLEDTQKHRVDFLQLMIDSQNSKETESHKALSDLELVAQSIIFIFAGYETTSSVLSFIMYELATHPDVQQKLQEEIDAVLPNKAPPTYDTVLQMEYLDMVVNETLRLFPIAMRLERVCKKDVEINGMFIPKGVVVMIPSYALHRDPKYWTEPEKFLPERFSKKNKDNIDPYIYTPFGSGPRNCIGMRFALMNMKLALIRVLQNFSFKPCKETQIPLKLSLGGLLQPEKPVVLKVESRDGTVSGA

Consider `O=c1cc(NC2CCN(S(=O)(=O)C(F)(F)F)CC2)c2cc(C(c3ccc(Cl)cc3)c3ccc(Cl)cc3)ccc2[nH]1`, for which the outcome with Mus musculus [1], in the data set with Mus musculus [6], with Mus musculus [8], in the data set on Mus musculus [10] and in the data set on Mus musculus [17] was Active. In addition, the figures for the concentration at 2 h in data set [2] and in [15] were 0.508 µM and 8.65 µM, respectively. Also, the Drug uptake in data set [3] is listed as 0.357 nmol/g; in data set [7], 0.329 nmol/g; in data set [14], 0.012 nmol/g. The half-inhibitory concentration (IC50) at Cytochrome P450 3A4, against Cytochrome P450 1A2 and at Cytochrome P450 2C9 was more than 10 µM each time. Moreover, the Kp at 2 h in data set [4] was 0.072; in data set [13], 0.026; in data set [18], 0.038. For the same molecule, the Kp at 4 h in [5] stood at 0.0099. In addition, the concentration for a half-maximal effect (EC50) at Cannabinoid receptor 1 is 0.0082 to 0.0083 µM. The Kp in data set [9] turned out to be 0.72. In data set [11], the remaining at 10 min, 1 µM came out at 100%. In addition, the Occ in the data set with Mus musculus [12] is on record as 71.6%. For the same molecule, the half-life in [16] was 7.26 h. Also, the Activity result in the data set on Salmonella typhimurium is listed as “Non-Toxic”.
